{"source": "patent US20160311812A1", "about": "“ADENOSINE A1 AGONISTS AS MEDICAMENTS FOR KIDNEY DISORDERS” (BAYER PHARMA AKTIENGESELLSCHAFT, priority 2013, published 2016)", "tested_on": "glycerol-rat model", "experiment": "Acute renal protection in the glycerol rat (haemolytic-uraemic syndrome)", "type": "in vivo", "conditions": "Group 3: glycerol + 10 mg/kg BW p.o. 8 and 19 h after glycerol injection", "from_the_text": "B-2. Acute Renal Protection by Partial A1 Agonists in the Glyeriol Rat (Haemolytic-Uraemic Syndrome; Example for Acute Kidney Disorders)\nGlycerol-induced haemolysis in rats is an established animal model for investigating haemolysis-induced, acute renal failure with decrease of the individual nephron filtrate and a rapid increase in substances that are usually eliminated in the urine, such as creatinine and urea. Haemolytic uraemia leads to acute blockade of the tubules through protein deposits (“luminal casts”) and finally to degeneration/necrosis of the tubules. At present there is no known curative therapy, i.e. an antidegenerative therapy of structural kidney injury.\nProcedure: male Wistar:WU rats (200-220 g) from Charles River received, after withdrawal of water for 14-18 hours, a single subcutaneous injection of a 50% glycerol solution (8 ml/kg body weight) or 0.9% NaCl (controls). The following groups were investigated:\nGroup 2 Glycerol+placebo (60 g glycerol+100 g water+969 g PEG-400); n=12\nGroup 3 Glycerol+10 mg/kg BW partial A1 agonist EXAMPLE 1, p.o. in placebo, 8 and 19 hours after glycerol injection; n=8\nAt the end of the protocol (=24 hours after glycerol intoxication), the following samples were obtained/measurements were carried out: four-hour urine collection with administration of water (10 ml water/kg body weight, p.o.), and TaqMan analyses of renal injury markers in the renal cortex of the right kidney and histological assessment of the “kidney injury score” in the left kidney, by determining the degree of renal damage from the intensity of “luminal casts+tubular necrosis/degeneration”.", "note": "Marks after values point to notes of the source that are not given here."}
{"smiles": "N#Cc1c(N)nc(SCc2csc(-c3ccc(Cl)cc3)n2)c(C#N)c1-c1ccc(OCCO)cc1", "note": "[EXAMPLE 1, 2-Amino-6-({[2-(4-chlorophenyl)-1,3-thiazol-4-yl]methyl}sulphanyl)-4-[4-(2-hydroxyethoxy)phenyl]pyridine-3,5-dicarbonitrile]", "values": [{"measurement": "P-creatinine", "setting": "24 h after glycerol", "result": "52 ± 1", "unit": "µmol/L"}, {"measurement": "P-urea", "setting": "24 h after glycerol", "result": "11 ± 0.4*^ mmol/l"}, {"measurement": "Kidney injury marker-1", "setting": "TaqMan, renal cortex", "result": "951 ± 216", "unit": "rel. expression"}, {"measurement": "Lipocalin-2", "setting": "TaqMan, renal cortex", "result": "204 ± 23", "unit": "rel. expression"}, {"measurement": "Osteopontin", "setting": "TaqMan, renal cortex", "result": "5575 ± 694", "unit": "rel. expression"}, {"measurement": "U-creatinine", "setting": "four-hour urine collection", "result": "0.2 ± 0.03", "unit": "μmol/ml urine/kg BW/h"}, {"measurement": "U-protein", "setting": "four-hour urine collection", "result": "0.02 ± 0.01", "unit": "μmol/ml urine/kg BW/h"}, {"measurement": "U-sodium", "setting": "four-hour urine collection", "result": "4 ± 1", "unit": "μmol/ml urine/kg BW/h"}, {"measurement": "U-urea", "setting": "four-hour urine collection", "result": "31 ± 6", "unit": "μmol/ml urine/kg BW/h"}, {"measurement": "Urine volume", "setting": "four-hour urine collection", "result": "6.7 ± 0.6", "unit": "ml/kg BW/h"}, {"measurement": "Kidney injury score (histo)", "setting": "left kidney, luminal casts + tubular necrosis/degeneration", "result": 1.12}]}
